Results reported in PubChem BioAssay (NCI).
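All cell lines were grown in 96-well plates and treated with compound for 48 hours. GI50 = concentration required for 50% inhibition of growth. Definition used: TGI = concentration required for complete inhibition of growth.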 *1 amine or outer side, *2 acyl side, *3 side chain or, on linkers, in order; H or OH if unused. Where a SMILES comes first, the peptide text is derived from it. Bridges are numbered along the chain shown (N, C = ends). [ ]: non-standard residue; d: D form. The star is where a group is joined. Phe(3-Me) = Cc1cccc(C[C@H](N)C(=O)O)c1; NH(4-Cl-2-F-phenyl) = Fc1cc(Cl)ccc1N*; Pro(4R-Me) = C[C@H]1CN[C@H](C(=O)O)C1; Propanoyl(3-NMe2) = CN(C)CCC(=O)*; Hyp = O=C(O)[C@@H]1C[C@@H](O)CN1; aThr = C[C@H](O)[C@H](N)C(=O)O; Pip = O=C(O)[C@@H]1CCCCN1; CO = O=C([*:1])[*:2]

Key:
Assay in all cases: NCI tumour cell line growth inhibition, 48 h
[1] = system: HOP-92 NSCLC
[2] = system: SK-MEL-2 melanoma
[3] = system: ACHN renal
[4] = system: RPMI-8226 leukemia
[5] = system: T-47D breast
[6] = system: U251 CNS
[7] = system: CCRF-CEM leukemia
[8] = system: K-562 leukemia
[9] = system: SK-MEL-5 melanoma
[10] = system: UO-31 renal

| Structure (SMILES) | GI50 [1] [nM] | TGI [1] [µM] | GI50 [2] [µM] | TGI [2] [µM] | GI50 [3] [nM] | TGI [3] [µM] | GI50 [4] [nM] | TGI [4] [µM] | GI50 [5] [nM] | TGI [5] [µM] | GI50 [6] [nM] | TGI [6] [µM] | GI50 [7] [µM] | TGI [7] [µM] | GI50 [8] [nM] | TGI [8] [µM] | GI50 [9] [nM] | TGI [9] [µM] | GI50 [10] [nM] | TGI [10] [µM] |
| --- | --- | --- | --- | --- | --- | --- | --- | --- | --- | --- | --- | --- | --- | --- | --- | --- | --- | --- | --- | --- |
| Oc1cc2ccccc2cc1-c1n[nH]c(=S)n1-c1ccc(Cl)cc1 | 46000 | > 100 | 12.5 | 39.3 | 25800 | > 100 | 12100 | 43.5 | 31600 | > 100 | 13000 | 90.9 | 21.9 | > 100 | > 100000 | > 100 | 14400 | 38.2 | 23200 | 71.8 |
| O=C(Nc1ccc(Br)cc1F)c1cc(Br)ccc1O | 177 | 0.651 | 0.387 | 2.42 | 848 | 9.18 | 322 | 2.02 | 457 | 6.87 | 640 | 13.3 | 2.03 | > 44.4 | 453 | > 35.9 | 289 | 1.19 | 400 | 2.8 |
| O=C(/C=C/c1cccnc1)c1ccccc1O | 10400 | 32.5 | 22.8 | 62.2 | 16700 | 37.6 | 12900 | 39 | 21000 | > 100 | 22200 | 81.1 | 22.7 | > 100 | 20900 | 80 | 16100 | 31.1 | 13400 | 28.9 |
| CC(=O)c1ccc(NCN2C(=O)c3ccccc3C2=O)cc1 | – | > 100 | – | > 100 | – | > 100 | – | > 100 | – | > 100 | – | > 100 | – | > 100 | – | > 100 | – | > 100 | – | > 100 |
| CC(=O)Nc1sc2c(c1-c1nc3ccccc3s1)CNC2 | 4210 | 19.2 | 2.67 | 9.71 | 1280 | 7.56 | 3570 | 19.3 | 2360 | 22.3 | 4060 | 30.3 | 3.74 | 22.2 | 2230 | 11.1 | 5230 | 11.2 | 648 | 11.4 |
| Cc1cccc(C[C@H](NC(=O)Nc2ccc(Cl)cc2F)C(=O)N[C@@H]2C(=O)N3C[C@H](OC(=O)CCN(C)C)C[C@H]3C(=O)N3CCCC[C@H]3C(=O)N[C@@H](C)C(=O)N3C[C@H](C)C[C@H]3C(=O)O[C@H]2C)c1 ({NH(4-Cl-2-F-phenyl)-CO}-[Phe(3-Me)][aThr][Hyp](Propanoyl(3-NMe2))[Pip]A[Pro(4R-Me)]; ester 2-C) | 572 | 2.66 | 0.667 | 2.67 | 1750 | 3.49 | 181 | 1.88 | 448 | 4.53 | 441 | 7.27 | 0.47 | 7.81 | 300 | – | 460 | 1.62 | 2170 | 7.13 |
| CN1CCCN(C(c2ccccc2)c2ccc(Br)cc2)CC1 (stereo not drawn) | 635 | 7.73 | 3.66 | 11.3 | 3620 | 14.1 | 9040 | 36.2 | 3180 | 19.2 | 3000 | 10.3 | 4.14 | 18.9 | 5040 | > 100 | 1850 | 3.74 | 2650 | 16 |
| O=C(O)/C=C\C(=O)Nc1ccc2c(c1)C(=O)c1cc(F)ccc1-2 | – | > 100 | – | > 100 | – | > 100 | – | > 100 | – | > 100 | – | > 100 | – | > 100 | – | > 100 | – | > 100 | – | > 100 |
| COc1cc2c3c(c4c5ccccc5[nH]c4c2c(OC)c1OC)C(=O)N(CCN1CCCCC1)C3=O | 1300 | 5.21 | 3.17 | 11.2 | 400 | 1.6 | 1060 | 4.17 | 6090 | > 25.5 | 1120 | 2.49 | 0.855 | > 100 | 710 | – | 1880 | 5.31 | 1030 | 2.32 |
| O=C(CN1CCN(c2ccc(Cl)cc2)CC1)N1CCN(c2nnc(-c3ccccc3)c(-c3ccccc3)n2)CC1 | 6680 | > 100 | > 100 | > 100 | 5070 | > 100 | 2770 | > 100 | 2000 | > 100 | 8020 | > 100 | 21.6 | > 100 | 5910 | > 100 | 2110 | 8.31 | 4410 | > 100 |
| O=C1C(Cl)=C(Nc2cccc(O)c2)C(=O)N1c1cccc(Cl)c1Cl | 262 | 5.91 | 15.2 | 35.9 | 19100 | > 100 | 1560 | 16.2 | 16800 | 86.3 | 12400 | 30.8 | 8.38 | 50.4 | 13500 | 29.6 | 7010 | 21.7 | 23300 | > 100 |
| COc1cc(NC(N)=NCCC(C)(C)c2ccc(C(F)(F)F)cc2)ncc1C#N | 1300 | 2.74 | 1.84 | 3.38 | 1650 | 3.01 | 1270 | 3.3 | 1510 | 3.5 | 1670 | 3.05 | 2.06 | 4.93 | 1420 | 5.02 | 1580 | 2.94 | 1340 | 2.66 |
| CC[C@]12CCCN3CC[C@]4(C(=C(C(=O)OC)C1)Nc1ccccc14)[C@@H]32 | 7090 | 24.6 | 16.8 | 39.2 | 15300 | 28.6 | 19400 | 51.2 | 16600 | 80.5 | 15100 | 29.6 | 21.4 | 70 | 11900 | 43.4 | 15400 | 28.8 | 10900 | 24.1 |
| O=S(=O)(NCCCNc1cc(-c2cn(-c3ccccc3)nc2-c2cccc(O)c2)ccn1)c1ccc(Cl)cc1 | 1520 | 4.74 | 1.91 | 3.51 | 2740 | 13.6 | 1490 | 4.68 | 1480 | 5.21 | 1350 | 3.47 | 2.43 | 7.85 | 437 | 2.5 | 1230 | 2.55 | 2030 | 8.64 |
| Nc1nc2c(c3cnccc13)C(c1cccc(Cl)c1)Cc1cnccc1-2 (stereo not drawn) | 811 | 18.2 | 0.374 | 5.25 | 761 | 11.9 | 480 | 20.2 | 384 | 25.2 | 336 | 1.08 | 0.429 | 19.5 | 338 | 28.7 | 398 | 2.04 | 841 | 14.8 |
